Data as given in patent US10538535B2, “Antitumoral compounds” (priority 2017, dated 2020).
Like-named read-outs stand apart in the source and are kept apart here.

Assays:
HGC27 tumors = details: HGC27 xenograft
Protocol: (§1) Female athymic nu/nu mice (Harlan Laboratories Models, S. L. Barcelona, Spain or Envigo, Spain) were utilized for all experiments. Animal were housed in individually ventilated cages Sealsafe® Plus, Techniplast S.P.A.), up to ten per cage on a 12-hour light-dark cycle at 21-23° C. and 40-60% humidity. […] Animals were acclimated for at least 5 days prior to tumor implantation with a tumor cell suspension.
HGC27 cells were maintained in vitro at 37° C. with 5% CO2 in Iscove's Modified Dulbecco's Medium (Sigma Aldrich, Co). Culture cells were passage every 3 to 5 days on reaching confluence. Each animal was subcutaneously implanted (on the right flank using 26 G needle and a 1 cc syringe) at 4-6 weeks of age with 5×10^6 HGC-27 cells suspended in 0.05 mL of a solution consisting of 50% Matrigel® (Corning Incorporated Life Sciences), 50% medium without serum or antibiotics.
(§2) Treatment tolerability was assessed by monitoring body weight evolution, clinical signs of systemic toxicity, as well as evidences of local damage in the injection site.
(§3) Treatments producing >20% lethality and/or 20% net body weight loss were considered toxic.

Lewis lung carcinoma = details: cited from earlier work
P388 lymphoma = details: cited from earlier work
B16 melanoma = details: cited from earlier work
A2780 tumors = details: A2780 xenograft
Protocol: as §1
Culture cells were passaged every 3 to 5 days upon reaching confluence. Each animal was subcutaneously implanted (on the right flank using 26 G needle and a 1 cc syringe) at 4-6 weeks of age with 10×10^6 A2780 cells suspended in 0.05 mL of a solution consisting of 50% Matrigel® (Corning Incorporated Life Sciences) and 50% medium without serum or antibiotics.
as §2
(§4) In xenograft studies with other cell lines: • Tumor volume was calculated using the equation (a·b^2)/2, where a: length (longest diameter) and b: width (shortest diameter) were measured in mm by using digital caliper (Fowler Sylvac, S235PAT).
as §3

HT1080 tumors = assay: In vivo xenograft, human fibrosarcoma HT1080; details: iv weekly, 32 and ET-736 0.5 mg/Kg
Protocol: as §1
HT1080 cells were maintained in vitro at 37° C. with 5% CO2 in Minimum Essential Medium Eagle (MEME) (Sigma-Aldrich, Co). Each animal was orthotopically implanted into gastroecnemius muscle by an intramuscular injection using a 26 G needle and a 1 cc syringe at 4-6 weeks of age, with 10×10^6 HT1080 cells, suspended in serum free medium, without antibiotics.
as §2
In xenograft studies with HT1080 cell line: • Total diameter (tumor+leg) measurements were determined by using digital caliper (Fowler Sylvac, S235PAT).
as §3

MDA-MB-231 tumors = details: iv, 0.5 mg/kg
Protocol: as §1
MDA-MB-231 cells were maintained in vitro at 37° C. with 5% CO2 in Dulbecco's Modified Eagle's Medium (Sigma-Aldrich, Co). Culture cells were passaged every 3 to 5 days upon reaching confluence.
as §2, §4, §3

[1] = MTD (Maximum Tolerated Dose) determination, single iv administration; type: in vivo; details: female, mouse, in vivo; mice; iv/SD
Summary of the method: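 Tolerability endpoints were systemic toxicity signs, body-weight change and mortality over 14 days after dosing. Dosing was intravenous at 10 mL/kg in female CD-1 or nude mice, as a single administration for MTD or once weekly ×3 for MTMD, with blank formulation as control.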

SMILES: COc1c(C)cc2c(c1O)[C@@H]1[C@@H]3[C@@H]4SC[C@]5(NCCc6c5[nH]c5ccccc65)C(=O)OC[C@@H](c5c6c(c(C)c(OC(C)=O)c54)OCO6)N3[C@@H](O)[C@H](C2)N1C [ET-736, Ecteinascidin 736]
- Median Tumor Volume (HGC27 tumors; Day 0): 195.9 mm^3
- Median Tumor Volume (HGC27 tumors; Day 2): 359.2 mm^3
- Median Tumor Volume (HGC27 tumors; Day 5): 537.6 mm^3
- Median Tumor Volume (HGC27 tumors; Day 7): 553.5 mm^3
- Median Tumor Volume (HGC27 tumors; Day 9): 604.7 mm^3
- Median Tumor Volume (HGC27 tumors; Day 12): 627.4 mm^3
- Median Tumor Volume (HGC27 tumors; Day 14): 648.0 mm^3
- Median Tumor Volume (HGC27 tumors; Day 16): 687.6 mm^3
- Median Tumor Volume (HGC27 tumors; Day 19): 760.0 mm^3
- Median Tumor Volume (HGC27 tumors; Day 21): 792.4 mm^3
- Median Tumor Volume (HGC27 tumors; Day 23): 818.9 mm^3
- Median Tumor Volume (HGC27 tumors; Day 26): 1026.1 mm^3
- Median Tumor Volume (HGC27 tumors; Day 28): 1354.9 mm^3
- protection of mice in vivo (Lewis lung carcinoma): protects mice in vivo at very low concentrations
- protection of mice in vivo (P388 lymphoma): protects mice in vivo at very low concentrations
- protection of mice in vivo (B16 melanoma): protects mice in vivo at very low concentrations
- Median Tumor Volume (A2780 tumors; Day 0): 168.8 mm^3
- Median Tumor Volume (A2780 tumors; Day 2): 251.2 mm^3
- Median Tumor Volume (A2780 tumors; Day 5): 382.6 mm^3
- Median Tumor Volume (A2780 tumors; Day 7): 676.1 mm^3
- Median Tumor Volume (A2780 tumors; Day 9): 959.4 mm^3
- Median Tumor Volume (A2780 tumors; Day 12): 1241.5 mm^3
- Median Tumor Volume (A2780 tumors; Day 14): 1582.7 mm^3
- Median Tumor Volume (A2780 tumors; Day 16): 1646.4 mm^3
- Median Tumor Volume (A2780 tumors; Day 19): 1845.5 mm^3
- Median Tumor Volume (A2780 tumors; Day 21): 2025.0 mm^3
- Total diameter (tumor + leg) (HT1080 tumors; Table 60, Day 2): 8.3 mm
- Total diameter (tumor + leg) (HT1080 tumors; Table 60, Day 5): 7.1 mm
- Total diameter (tumor + leg) (HT1080 tumors; Table 60, Day 7): 7.6 mm
- Total diameter (tumor + leg) (HT1080 tumors; Table 60, Day 9): 7.4 mm
- Total diameter (tumor + leg) (HT1080 tumors; Table 60, Day 12): 7.0 mm
- Total diameter (tumor + leg) (HT1080 tumors; Table 60, Day 14): 7.1 mm
- Total diameter (tumor + leg) (HT1080 tumors; Table 60, Day 16): 7.4 mm
- Total diameter (tumor + leg) (HT1080 tumors; Table 60, Day 19): 8.4 mm
- Total diameter (tumor + leg) (HT1080 tumors; Table 60, Day 21): 8.6 mm
- Total diameter (tumor + leg) (HT1080 tumors; Table 60, Day 23): 10.0 mm
- Total diameter (tumor + leg) (HT1080 tumors; Table 60, Day 27): 10.9 mm
- Total diameter (tumor + leg) (HT1080 tumors; Table 60, Day 30): 13.2 mm
- Total diameter (tumor + leg) (HT1080 tumors; Table 60, Day 33): 14.3 mm
- Total diameter (tumor + leg) (HT1080 tumors; Table 60, Day 35): 15.2 mm
- Total diameter (tumor + leg) (HT1080 tumors; Table 60, Day 37): 15.8 mm
- Total diameter (tumor + leg) (HT1080 tumors; Table 60, Day 40): 16.6 mm
- Total diameter (tumor + leg) (HT1080 tumors; Table 60, Day 42): 18.0 mm
- Median Tumor Volume (MDA-MB-231 tumors; 0 h): 150.0 mm^3
- Median Tumor Volume (MDA-MB-231 tumors; 48 h): 237.7 mm^3
- Median Tumor Volume (MDA-MB-231 tumors; 120 h): 302.1 mm^3
- Median Tumor Volume (MDA-MB-231 tumors; 168 h): 364.9 mm^3
- Median Tumor Volume (MDA-MB-231 tumors; 336 h): 398.3 mm^3
- Median Tumor Volume (MDA-MB-231 tumors; 384 h): 447.2 mm^3
- Median Tumor Volume (MDA-MB-231 tumors; 456 h): 485.0 mm^3
- Median Tumor Volume (MDA-MB-231 tumors; 504 h): 536.3 mm^3
- Median Tumor Volume (MDA-MB-231 tumors; 552 h): 669.8 mm^3
- Median Tumor Volume (MDA-MB-231 tumors; 672 h): 1046.1 mm^3
- Median Tumor Volume (MDA-MB-231 tumors; 720 h): 1315.9 mm^3
- Median Tumor Volume (MDA-MB-231 tumors; 840 h): 2007.7 mm^3

SMILES: COc1c(C)cc2c(c1O)[C@@H]1[C@@H]3[C@@H]4SC[C@]5(NCCc6c5oc5ccccc65)C(=O)OC[C@@H](c5c6c(c(C)c(OC(C)=O)c54)OCO6)N3[C@@H](O)[C@H](C2)N1C [Compound 32]
- Median Tumor Volume (HGC27 tumors; Day 0): 194.8 mm^3
- Median Tumor Volume (HGC27 tumors; Day 2): 386.3 mm^3
- Median Tumor Volume (HGC27 tumors; Day 5): 551.3 mm^3
- Median Tumor Volume (HGC27 tumors; Day 7): 579.2 mm^3
- Median Tumor Volume (HGC27 tumors; Day 9): 665.8 mm^3
- Median Tumor Volume (HGC27 tumors; Day 12): 701.1 mm^3
- Median Tumor Volume (HGC27 tumors; Day 14): 814.5 mm^3
- Median Tumor Volume (HGC27 tumors; Day 16): 959.9 mm^3
- Median Tumor Volume (HGC27 tumors; Day 19): 1312.4 mm^3
- Median Tumor Volume (HGC27 tumors; Day 21): 1626.8 mm^3
- Median Tumor Volume (HGC27 tumors; Day 23): 1737.3 mm^3
- Median Tumor Volume (A2780 tumors; Day 0): 168.6 mm^3
- Median Tumor Volume (A2780 tumors; Day 2): 262.9 mm^3
- Median Tumor Volume (A2780 tumors; Day 5): 572.7 mm^3
- Median Tumor Volume (A2780 tumors; Day 7): 997.5 mm^3
- Median Tumor Volume (A2780 tumors; Day 9): 1359.9 mm^3
- Median Tumor Volume (A2780 tumors; Day 12): 1715.0 mm^3
- Median Tumor Volume (A2780 tumors; Day 14): 2025.0 mm^3
- Median Tumor Volume (A2780 tumors; Day 16): 2025.0 mm^3
- MTD at 14 days [1]: 0.5 mg/kg
- Total diameter (tumor + leg) (HT1080 tumors; Table 60, Day 2): 8.9 mm
- Total diameter (tumor + leg) (HT1080 tumors; Table 60, Day 5): 8.2 mm
- Total diameter (tumor + leg) (HT1080 tumors; Table 60, Day 7): 8.8 mm
- Total diameter (tumor + leg) (HT1080 tumors; Table 60, Day 9): 10.0 mm
- Total diameter (tumor + leg) (HT1080 tumors; Table 60, Day 12): 8.8 mm
- Total diameter (tumor + leg) (HT1080 tumors; Table 60, Day 14): 10.8 mm
- Total diameter (tumor + leg) (HT1080 tumors; Table 60, Day 16): 11.8 mm
- Total diameter (tumor + leg) (HT1080 tumors; Table 60, Day 19): 12.0 mm
- Total diameter (tumor + leg) (HT1080 tumors; Table 60, Day 21): 14.0 mm
- Total diameter (tumor + leg) (HT1080 tumors; Table 60, Day 23): 13.8 mm
- Total diameter (tumor + leg) (HT1080 tumors; Table 60, Day 27): 13.6 mm
- Total diameter (tumor + leg) (HT1080 tumors; Table 60, Day 30): 15.5 mm
- Total diameter (tumor + leg) (HT1080 tumors; Table 60, Day 33): 18.0 mm
- Median Tumor Volume (MDA-MB-231 tumors; 0 h): 150.2 mm^3
- Median Tumor Volume (MDA-MB-231 tumors; 48 h): 233.6 mm^3
- Median Tumor Volume (MDA-MB-231 tumors; 120 h): 310.6 mm^3
- Median Tumor Volume (MDA-MB-231 tumors; 168 h): 386.1 mm^3
- Median Tumor Volume (MDA-MB-231 tumors; 336 h): 560.3 mm^3
- Median Tumor Volume (MDA-MB-231 tumors; 384 h): 649.5 mm^3
- Median Tumor Volume (MDA-MB-231 tumors; 456 h): 853.0 mm^3
- Median Tumor Volume (MDA-MB-231 tumors; 504 h): 1017.5 mm^3
- Median Tumor Volume (MDA-MB-231 tumors; 552 h): 1263.2 mm^3
- Median Tumor Volume (MDA-MB-231 tumors; 672 h): 1726.6 mm^3
- Median Tumor Volume (MDA-MB-231 tumors; 720 h): 1892.6 mm^3
